Experimental data published in the supplement of paper PMC9663587.

Key:
Assay in all cases: increase in dead-cell fraction, 72 h; higher = more death;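 also: breast cancer cell lines in 384-well plates, stained with Hoechst plus LIVE/DEAD far red dye and imaged, cells above an LDR intensity threshold counted dead, Hoechst-negative corpses included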
[1] = compound: C=CC(=O)Nc1ccc(C(=O)Nc2[nH]nc3c2CN(C(=O)N[C@H](CN(C)C)c2ccccc2)C3(C)C)cc1 [YKL-5-124]
[2] = compound: CC(=O)c1c(C)c2cnc(Nc3ccc(N4CCN(CCOCCOCCOCCNC(=O)COc5cccc6c5C(=O)N(C5CCC(=O)NC5=O)C6=O)CC4)cn3)nc2n(C2CCCC2)c1=O [BSJ-03-123]
[3] = compound: CC(=O)c1c(C)c2cnc(Nc3ccc(N4CCNCC4)cn3)nc2n(C2CCCC2)c1=O
[4] = compound: CCN1CCN(Cc2ccc(Nc3ncc(F)c(-c4cc(F)c5nc(C)n(C(C)C)c5c4)n3)nc2)CC1
[5] = compound: CCOc1cc2ncc(C#N)c(Nc3ccc(OCc4ccccn4)c(Cl)c3)c2cc1NC(=O)/C=C/CN(C)C [Neratinib/HKI272]
[6] = compound: CCc1cnn2c(NCc3ccc[n+]([O-])c3)cc(N3CCCC[C@H]3CCO)nc12

For MDAMB468, the “increase in dead-cell fraction” value ([1]; 0.001 µM) was 0.0818, the “increase in dead-cell fraction” value ([1]; 0.003162 µM) was 0.116 and the “increase in dead-cell fraction” value ([1]; 0.01 µM) was 0.0906. For the same cell line, the “increase in dead-cell fraction” value ([1]; 0.03162 µM) was 0.163, the “increase in dead-cell fraction” value ([1]; 0.1 µM) was 0.171 and the “increase in dead-cell fraction” value ([1]; 0.3162 µM) was 0.183. For the same cell line, the “increase in dead-cell fraction” value ([1]; 1 µM) was 0.231, the “increase in dead-cell fraction” value ([1]; 3.162 µM) was 0.213 and the “increase in dead-cell fraction” value ([1]; 10 µM) was 0.386. The “increase in dead-cell fraction” value ([2]; 0.001 µM) was -0.0103, the “increase in dead-cell fraction” value ([2]; 0.003162 µM) was 0.0028 and the “increase in dead-cell fraction” value ([2]; 0.01 µM) was 0.0034. The “increase in dead-cell fraction” value ([2]; 0.03162 µM) was 0.0062, the “increase in dead-cell fraction” value ([2]; 0.1 µM) was 0.0131 and the “increase in dead-cell fraction” value ([2]; 0.3162 µM) was 0.0169. For the same cell line, the “increase in dead-cell fraction” value ([2]; 1 µM) was 0.0332, the “increase in dead-cell fraction” value ([2]; 3.162 µM) was 0.0309 and the “increase in dead-cell fraction” value ([2]; 10 µM) was 0.128. The “increase in dead-cell fraction” value ([3]; 0.0003162 µM) was 0.0165, the “increase in dead-cell fraction” value ([3]; 0.001 µM) was 0.0114 and the “increase in dead-cell fraction” value ([3]; 0.003162 µM) was 0.0024. The “increase in dead-cell fraction” value ([3]; 0.01 µM) was -0.0003, the “increase in dead-cell fraction” value ([3]; 0.03162 µM) was 0.0031 and the “increase in dead-cell fraction” value ([3]; 0.1 µM) was -0.006. For the same cell line, the “increase in dead-cell fraction” value ([3]; 0.3162 µM) was -0.0071, the “increase in dead-cell fraction” value ([3]; 1 µM) was -0.001 and the “increase in dead-cell fraction” value ([3]; 3.162 µM) was -0.0077. For the same cell line, the “increase in dead-cell fraction” value ([4]; 0.001 µM) was 0.0107, the “increase in dead-cell fraction” value ([4]; 0.003162 µM) was 0.0019 and the “increase in dead-cell fraction” value ([4]; 0.01 µM) was -0.0006. For the same cell line, the “increase in dead-cell fraction” value ([4]; 0.03162 µM) was -0.0012, the “increase in dead-cell fraction” value ([4]; 0.1 µM) was -0.0016 and the “increase in dead-cell fraction” value ([4]; 0.3162 µM) was -0.0021. The “increase in dead-cell fraction” value ([4]; 1 µM) was 0.019, the “increase in dead-cell fraction” value ([4]; 3.162 µM) was 0.101 and the “increase in dead-cell fraction” value ([4]; 10 µM) was 0.545. For the same cell line, the “increase in dead-cell fraction” value ([5]; 0.0003162 µM) was 0.0075, the “increase in dead-cell fraction” value ([5]; 0.001 µM) was 0.0021 and the “increase in dead-cell fraction” value ([5]; 0.003162 µM) was 0.0111. The “increase in dead-cell fraction” value ([5]; 0.01 µM) was 0.0196, the “increase in dead-cell fraction” value ([5]; 0.03162 µM) was 0.0337 and the “increase in dead-cell fraction” value ([5]; 0.1 µM) was 0.0953. The “increase in dead-cell fraction” value ([5]; 0.3162 µM) was 0.205, the “increase in dead-cell fraction” value ([5]; 1 µM) was 0.381 and the “increase in dead-cell fraction” value ([5]; 3.162 µM) was 0.6. The “increase in dead-cell fraction” value ([6]; 0.0001 µM) was 0.0037, the “increase in dead-cell fraction” value ([6]; 0.0003162 µM) was -0.0009 and the “increase in dead-cell fraction” value ([6]; 0.001 µM) was -0.0038. For the same cell line, the “increase in dead-cell fraction” value ([6]; 0.003162 µM) was 0.0016, the “increase in dead-cell fraction” value ([6]; 0.01 µM) was 0.0237 and the “increase in dead-cell fraction” value ([6]; 0.03162 µM) was 0.245. For the same cell line, the “increase in dead-cell fraction” value ([6]; 0.1 µM) was 0.396, the “increase in dead-cell fraction” value ([6]; 0.3162 µM) was 0.462 and the “increase in dead-cell fraction” value ([6]; 1 µM) was 0.494.
